Experiments:
Assay type in all cases: cell-based
breast PDX = test: Activity against breast PDX; conditions: growth of breast PDX; summary of Table 6
Description: (§1) PDX-derived cell cultures were obtained from tumors explanted from mice and isolated by mechanical and enzymatic dissociation. […] Cells were harvested and seeded in 96-wells plates at a density of 1.25 to 5×10^3 cells/well for cytotoxicity assays. Cells were incubated 48 h at 37° C. prior to addition of test molecules and vehicle (DMSO, 0.1%) at desired final concentrations. Cell viability was assessed before drugs' addition (To) and 5 days after test molecules addition by measuring ATP cell content using CellTiter-Glo® Luminescent Cell Viability Assay (Promega) according to the manufacturer's instructions. Luciferase activity was measured on a luminometer (PerkinElmer® EnVision™). Each concentration of compounds was tested in triplicate.
(§2) Viability was calculated as a percentage of ATP value compared to vehicle treated controls.
(§3) For PDX primary cell cultures, the tumour tissue was washed with PBS containing antibiotic-antimycotic and non-tumour tissue and necrotic tumour tissues were separated. The tumour tissue was transferred to a new dish and cut into 1-2 mm^3 fragments, resuspended in RPMI-1640 medium and centrifuged at 1,200 rpm for 6 min at room temperature. The pelleted material was resuspended with 15 mL of Tumour Cell Digestion Solution and incubated at 37° C. for 1 hour with agitation. Following further addition of media, centrifugation and passage through a […] cell strainer, the homogenous cell mixture was layered onto 15 mL of Ficoll-Paque PLUS in a 50 mL conical tube and centrifuged for 15 min at 1,600 rpm. The interface cells were collected, washed with media, separated by centrifugation at 1,200 rpm. The cell pellet was resuspended in serum free media supplemented with growth factors. 10,000 cells/wells were plated in a 96 well plate and incubated at 37° C., 5% CO2, 95% air and 100% relative humidity overnight. The cytotoxicity assay was conducted as above. IC50 values represent absolute IC50.

KM-12 = test: Cell viability assay (CellTiter-Blue/CellTiter-Glow); conditions: Homo sapiens, KM12; colon carcinoma cell line KM-12; absolute IC50
Description: (§4) Antitumor activity of the compounds and doxorubicin as a positive control was assessed by using the CellTiter-Blue Cell Viability Assay (Promega, #G8082) or CellTiter-Glow® Luminescent Cell Viability assay (Promega #G7572) according to the manufacturer's instructions. The compounds were tested at 5 or 6 concentrations in half-log increments (highest concentration 30 μM or 100 μM) in duplicate or triplicate well conditions.
(§5) Tumor cells were grown at 37° C. in a humidified atmosphere with 5% CO2 in RPMI 1640 or DMEM medium, supplemented with 10% (v/v) fetal calf serum and 50 μg/ml gentamicin for up to 20 passages, and were passaged once or twice weekly. Cells were harvested using TrypLE or PBS buffer containing 1 mM EDTA, and the percentage of viable cells is determined using a CASY Model TI cell counter (OMNI Life Science). Cells were harvested from exponential phase cultures, counted and plated in 96 well flat-bottom microtiter plates at a cell density depending on the cell line's growth rate (4,000-20,000 cells/well depending on the cell line's growth rate, up to 60,000 for hematological cancer cell lines) in RPMI 1640 or DMEM medium supplemented with 10% (v/v) fetal calf serum and 50 μg/ml gentamicin (140 μl/well). Cultures were incubated at 37° C. and 5% CO2 in a humidified atmosphere. After 24 h, 10 μl of test compounds or control medium were added, and left on the cells for another 72 h. Compounds were serially diluted in DMSO, transferred in cell culture medium, and added to the assay plates. The DMSO concentration was kept constant at <0.3% v/v across the assay plate. Viability of cells was quantified by the CellTiter-Blue® cell viability assay (Promega G8081) or CellTiter-Glow® Luminescent Cell Viability assay (Promega #G7572). Fluorescence (FU) was measured by using the EnSpire® multimode plate reader (Perkin Elmer) (excitation X=570 nm, emission λ=600 nm). Luminescence was measured with a microplate luminometer (Promega or PerkinElmer).
(§6) Sigmoidal concentration-response curves were fitted to the data points (test-versus-control, T/C values) obtained for each tumor model using 4 parameter non-linear curve fit (Charles River DRS Datawarehouse Software) or with GraphPad prism 5.02 software. IC50 values are reported as absolute IC50 values, being the concentration of test compound at the intersection of the concentration-response curves with T/C=50% Cell lines tested are presented in Table 1.

NCI-H460 = test: as above; conditions: Homo sapiens; lung carcinoma cell line NCI-H460; absolute IC50; 72 h
Description: as §4, §5, §6

SF-268 = test: as above; conditions: Homo sapiens; brain carcinoma cell line SF-268; absolute IC50; 72 h
Description: as §4, §5, §6

Mia-Pa-Ca-2 = test: as above; conditions: Homo sapiens, MIA PaCa-2; pancreatic carcinoma cell line Mia-Pa-Ca-2; absolute IC50; 72 h
Description: as §4, §5, §6

U-87 = test: as above; conditions: Homo sapiens, U-87 MG; brain carcinoma cell line U-87; absolute IC50; 72 h
Description: as §4, §5, §6

HCT-15 = test: as above; conditions: Homo sapiens; colon carcinoma cell line HCT-15; absolute IC50; 72 h
Description: as §4, §5, §6

OVCAR-3 = test: as above; conditions: Homo sapiens; ovarian carcinoma cell line OVCAR-3; absolute IC50; 72 h
Description: as §4, §5, §6

HT-29 = test: as above; conditions: Homo sapiens; colon carcinoma cell line HT-29; absolute IC50; 72 h
Description: as §4, §5, §6

A549 = test: as above; conditions: Homo sapiens; lung carcinoma cell line A549; absolute IC50; 72 h
Description: as §4, §5, §6

CALU-6 = test: as above; conditions: Homo sapiens; lung carcinoma cell line CALU-6; absolute IC50; 72 h
Description: as §4, §5, §6

kidney PDX = test: Activity against kidney PDX; conditions: kidney PDX growth; summary of Table 12
Description: as §1, §2, §3

colon PDX = test: Activity against colon PDX; conditions: for IC50: growth of colon PDX, Table 8; for selectivity among colon PDX: colon PDX CO-04-0722 and CO-04-0700 versus CO-04-0701
Description: as §1, §2, §3

H1299 = test: Cell viability assay (CellTiter-Blue/CellTiter-Glow); conditions: Homo sapiens, NCI-H1299; lung carcinoma cell line H1299; absolute IC50; 72 h
Description: as §4, §5, §6

K-562 = test: as above; conditions: Homo sapiens, K562; leukaemia cell line K-562; absolute IC50; 72 h
Description: as §4, §5, §6

SK-OV-3 = test: as above; conditions: Homo sapiens; ovarian carcinoma cell line SK-OV-3; absolute IC50; 72 h
Description: as §4, §5, §6

O=c1cc(-c2ccc(CCCC[P+](c3ccccc3)(c3ccccc3)c3ccccc3)cc2)oc2c3c(ccc12)OCO3.[Br-] [SND123, 4-[4-(6-oxo-[1,3]dioxolo[4,5-h]chromen-8-yl)phenyl]butyl-triphenylphosphonium bromide]
IC50 (breast PDX): < 20 µM | IC50 (KM-12): 3 µM | IC50 (NCI-H460): 5.04 µM | IC50 (SF-268): 3.15 µM | IC50 (Mia-Pa-Ca-2): 1.32 µM | IC50 (U-87): 0.87 µM | IC50 (HCT-15): 9.3 µM | IC50 (OVCAR-3): 2.36 µM | IC50 (HT-29): 9.3 µM | IC50 (A549): 8.08 µM | IC50 (CALU-6): 1.14 µM | IC50 (kidney PDX): < 20 µM | IC50 (colon PDX): < 20 µM

CCNC(=O)Oc1ccc2c(=O)cc(-c3ccc(CCCC[P+](c4ccccc4)(c4ccccc4)c4ccccc4)cc3)oc2c1OC(=O)NCC.[Br-] [SND124, 4-[4-[7,8-Bis(ethylcarbamoyloxy)-4-oxo-chromen-2-yl]phenyl]-butyltriphenylphosphonium bromide]
IC50 (breast PDX): < 20 µM | IC50 (KM-12): 2.7 µM | IC50 (H1299): 4.27 µM | IC50 (K-562): 0.02 µM | IC50 (Mia-Pa-Ca-2): 4.8 µM | IC50 (U-87): 1.18 µM | IC50 (HCT-15): 10 µM | IC50 (HT-29): 2.96 µM | IC50 (SK-OV-3): 3.4 µM | IC50 (A549): 11.2 µM | IC50 (kidney PDX): < 20 µM | selectivity among colon PDX (colon PDX): marked selectivity toward CO-04-0722 and CO-04-0700 | IC50 (colon PDX): < 20 µM

O=c1cc(-c2ccc(CCCC[P+](c3ccccc3)(c3ccccc3)c3ccccc3)cc2)oc2c(O)c(O)ccc12 [SND118, 4-[4-(7,8-dihydroxy-4-oxo-chromen-2-yl)phenyl]butyltriphenyl-phosphonium bromide]
IC50 (H1299): 1.28 µM | IC50 (K-562): 0.14 µM | IC50 (NCI-H460): 0.29 µM | IC50 (SF-268): 15.6 µM | IC50 (Mia-Pa-Ca-2): 1.9 µM | IC50 (U-87): 1.76 µM | IC50 (HCT-15): 3.3 µM | IC50 (OVCAR-3): 7.3 µM | IC50 (HT-29): 10.3 µM | IC50 (SK-OV-3): 6.35 µM | IC50 (A549): 12.5 µM | IC50 (CALU-6): 1.47 µM

COc1c(O)ccc2c(=O)cc(-c3ccc(CCCC[P+](c4ccccc4)(c4ccccc4)c4ccccc4)cc3)oc12.[Br-] [SND140, (4-(4-(7-hydroxy-8-methoxy-4-oxo-4H-chromen-2-yl)phenyl)butyl)triphenylphosphonium bromide]
IC50 (breast PDX): < 20 µM | IC50 (KM-12): 5.6 µM | IC50 (NCI-H460): 10.8 µM | IC50 (SF-268): 9.5 µM | IC50 (U-87): 5.4 µM | IC50 (OVCAR-3): 8.87 µM | IC50 (HT-29): 14.2 µM | IC50 (CALU-6): 3.8 µM | IC50 (kidney PDX): < 20 µM | IC50 (colon PDX): < 20 µM

CCNC(=O)Oc1ccc2c(=O)cc(-c3ccc(CCCC[P+](c4ccccc4)(c4ccccc4)c4ccccc4)cc3)oc2c1O.[Br-] [SND126A, 4-[4-[7-(Ethylcarbamoyloxy)-8-hydroxy-4-oxo-chromen-2-yl]phenyl]butyltriphenylphosphonium bromide]
IC50 (breast PDX): < 20 µM | IC50 (KM-12): 3.2 µM | IC50 (SF-268): 10.7 µM | IC50 (Mia-Pa-Ca-2): 0.96 µM | IC50 (OVCAR-3): 6.54 µM | IC50 (kidney PDX): < 20 µM | selectivity among colon PDX (colon PDX): marked selectivity toward CO-04-0722 and CO-04-0700 | IC50 (colon PDX): < 20 µM

CC(C)NC(=O)Oc1ccc2c(=O)cc(-c3ccc(CCCC[P+](c4ccccc4)(c4ccccc4)c4ccccc4)cc3)oc2c1O [SND127, 4-[4-[7-(Isopropylcarbamoyloxy)-8-hydroxy-4-oxo-chromen-2-yl]phenyl]butyltriphenylphosphonium bromide]
IC50 (H1299): 12.7 µM | IC50 (K-562): 1.23 µM | IC50 (NCI-H460): 5.58 µM | IC50 (SF-268): 11.9 µM | IC50 (Mia-Pa-Ca-2): 1.81 µM | IC50 (U-87): 3.8 µM | IC50 (OVCAR-3): 5.7 µM | IC50 (HT-29): 6.4 µM | IC50 (SK-OV-3): 11.5 µM | IC50 (A549): 5.3 µM | IC50 (CALU-6): 7.13 µM
